Where “and” joins values, the source holds several entries; their conditions need not be identical. Equal values may be shown once.

One assay has as its system urine mannitol. Put plainly: Urine mannitol (GC/MS) in a PMM2-CDG pediatric patient on oral epalrestat therapy. Conditions: for urine mannitol level: before therapy 648.6, controls <20. The format is in vivo, human. How it is done: (§1) Clinical studies: Epalrestat was used as an N of 1 study for a single pediatric patient with PMM2-CDG. An open label, single patient compassionate use study designed to assess the safety and tolerability of oral epalrestat therapy in a child with PMM2-CDG. The patient received […]. Concomitant medications, vital signs, blood draw for serum chemistry and hematology, and blood levels of epalrestat were collected at each study visit during a 6 month period to evaluate the safety and tolerability of oral epalrestat therapy in a child with PMM2-CDG. The Nijmegen Pediatric CDG Rating Scale (NPCRS) assessment was administered at the start of the study and at 6 months. Urine polyols were collected at the start, at 4 months, and at 6 months of therapy, and were measured as described elsewhere (Jansen et al., Clin Chim Acta 1986, 157:277-294). Briefly, 200 μl urine specimens were spiked with a mixture of labeled internal standards, allowed to equilibrate, and evaporated. […] Specimens were analyzed by GC/MS, selected ion monitoring using ammonia chemical ionization and a stable isotope dilution method. In general, the following protocol was used: • Creatinine (CR) values (mg/dL) were determined for all samples. • Multiplication factors were calculated for each patient sample. • 100 μL of Polyol QC Mix for the QC Standard and 100 μL water were pipetted into a labeled 16×100 screw-cap glass tube. • 200 μL each of low control and high control were pipetted into corresponding labeled 16×100 mm screw-cap glass tubes. • 200 μL of each patient sample was pipetted into a corresponding labeled 16×100 mm screw cap glass tube. […]
(§2) Urine sorbitol and mannitol levels also were quantified using similar processing of samples and GC/MS settings, monitoring ions specific for sorbitol and mannitol for peak area ratio calculations.
(§3) Patient assessment: Prior to the first dose of epalrestat and at 1, 2, 3, 6, 8, 9, 12 months during treatment, concomitant medications and vital signs were recorded and the patient was evaluated using the NPCRS. […]

In another assay the test system is urine sorbitol. As to the kind of experiment: Urine sorbitol (GC/MS) in a PMM2-CDG pediatric patient on oral epalrestat therapy. It is filed as in vivo, human. How it is done: as §1, §2, §3

On to `CC(/C=C1\SC(=S)N(CC(=O)O)C1=O)=C\c1ccccc1` [epalrestat], for which the urine mannitol level is listed as 25.09 mmol/mol creatinine in the assay on urine mannitol (6 months of epalrestat therapy) and 37.32 mmol/mol creatinine in the assay on urine mannitol (after 3 months of epalrestat therapy). The urinary mannitol level in the assay on urine mannitol (at 4 months of epalrestat treatment, pretreatment 648.6, control less than 10) turned out to be 37.32 mmol/mol creatinine. Moreover, the urine sorbitol level with urine sorbitol (6 months of epalrestat therapy, prior to treatment 19.93, controls <5) is 6.2 mmol/mol creatinine and 6.20 mmol/mol creatinine; in the assay with urine sorbitol (after 3 months of epalrestat therapy, before therapy 19.93, controls <5), 5.78 mmol/mol creatinine; in the assay with urine sorbitol (after 4 months of epalrestat treatment, prior to treatment 19.93, controls <5), 5.0 mmol/mol creatinine.

The values above are taken from patent publication US20240003908A1, “POLYOL BIOMARKERS FOR CONGENITAL DISORDERS OF GLYCOSYLATION” (Mayo Foundation for Medical Education and Research, priority 2020, published 2024).
